Measurements as given in ChEMBL document CHEMBL1137597, “Evolution of thiazolidine-based blockers of human Kv1.5 for the treatment of atrial arrhythmias” (Bioorg Med Chem Lett, 2007).

Columns and labels:
[1] = biological target: T1, Potassium voltage-gated channel subfamily A member 5 (Homo sapiens, UniProt P22460); experiment: Inhibition of Kv1.5 mediated ultra-rapid delayed rectifier current Ikur in human atrial cells; assay type: functional, cell-based, Cardiac atrium
[2] = biological target: T1, Potassium voltage-gated channel subfamily A member 5; experiment: Inhibition of ultra-rapid delayed rectifier current Ikur in human atrial cells at 1uM; assay type: functional, cell-based; settings: Cardiac atrium
[3] = Percent oxidation in rat S9 microsomal fraction; assay type: ADME; settings: read-out: Oxidation

T1 sequence (P22460 whole entry): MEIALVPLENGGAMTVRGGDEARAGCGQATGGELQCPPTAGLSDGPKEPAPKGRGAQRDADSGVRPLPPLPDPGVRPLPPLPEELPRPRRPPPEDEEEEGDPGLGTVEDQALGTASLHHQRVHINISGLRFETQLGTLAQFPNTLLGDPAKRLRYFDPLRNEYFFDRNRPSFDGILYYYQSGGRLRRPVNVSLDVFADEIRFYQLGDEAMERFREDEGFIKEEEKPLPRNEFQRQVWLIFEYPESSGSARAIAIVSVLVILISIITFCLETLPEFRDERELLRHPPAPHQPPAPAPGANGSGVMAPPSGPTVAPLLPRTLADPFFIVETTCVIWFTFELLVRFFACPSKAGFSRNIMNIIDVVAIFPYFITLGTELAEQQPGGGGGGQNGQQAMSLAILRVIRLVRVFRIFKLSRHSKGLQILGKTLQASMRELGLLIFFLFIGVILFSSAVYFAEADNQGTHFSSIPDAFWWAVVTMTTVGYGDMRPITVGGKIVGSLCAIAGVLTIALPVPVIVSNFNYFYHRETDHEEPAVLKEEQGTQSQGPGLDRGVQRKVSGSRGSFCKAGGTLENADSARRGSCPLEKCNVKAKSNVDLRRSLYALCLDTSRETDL

| Compound | IC50 [1] [nM] | inhibition [2] [%] | metabolised [3] [%] |
| --- | --- | --- | --- |
| CN(C)c1ccc(C2SCCN2C(=O)COc2ccccc2)cc1 (stereo not drawn) | – | 55 | – |
| Cc1ccc(C2SCC(=O)N2OCc2ccccc2)cc1C (stereo not drawn) | 207 | 92 | – |
| COc1ccc(CON2C(=O)CSC2c2ccccc2)cc1 (stereo not drawn) | 924 | – | – |
| Cc1ccc(C2SCCN2C(=O)CCc2ccccc2)cc1C (stereo not drawn) | – | 87 | – |
| O=C(COc1ccccc1)N1CCSC1c1ccc(Cl)c(Cl)c1 (stereo not drawn) | – | 93 | – |
| COc1ccc(CON2C(=O)CSC2c2ccc(Cl)c(Cl)c2)cc1 (stereo not drawn) | 113 | 92 | – |
| COc1ccc(CON2C(=O)CSC2c2ccc(C)c(C)c2)cc1 (stereo not drawn) | 95 | – | – |
| COc1ccc(CC(=O)N2CCSC2c2ccc(C)c(C)c2)cc1 (stereo not drawn) | 537 | 77 | – |
| COc1ccccc1CON1C(=O)CSC1c1ccc(Cl)c(Cl)c1 (stereo not drawn) | 204 | – | – |
| COc1ccc(CCCC(=O)N2CCSC2c2ccc(C)c(C)c2)cc1 (stereo not drawn) | – | 68 | – |
| COc1ccc(/C=C/C(=O)N2CCSC2c2ccc(C)c(C)c2)cc1 (stereo not drawn) | – | 92 | – |
| COc1ccc(CCN2C(=O)CSC2(C)c2ccc(C)cc2)cc1 (stereo not drawn) | 390 | 88 | – |
| COc1ccc(CCN2C(=O)CSC23CCc2c(C)cccc23)cc1 (stereo not drawn) | 487 | 61 | – |
| COc1ccccc1CON1C(=O)CSC1c1ccc(C)c(C)c1 (stereo not drawn) | 177 | 92 | – |
| COc1ccc(CCN2C(=O)CSC2(C)c2ccc(C)c(C)c2)cc1 (stereo not drawn) | 69 | 96 | – |

Next, values leading:

| IC50 [1] [nM] | inhibition [2] [%] | metabolised [3] [%] | Compound |
| --- | --- | --- | --- |
| 179 | – | – | COc1cccc(CON2C(=O)CSC2c2ccc(Cl)c(Cl)c2)c1 (stereo not drawn) |
| 150 | 89 | – | COc1ccc(CCC(=O)N2CCSC2c2ccc(C)c(C)c2)cc1 (stereo not drawn) |
| – | 72 | – | COc1ccc(C2SCCN2C(=O)COc2ccccc2)cc1 (stereo not drawn) |
| 812 | 66 | – | COc1ccc(CCN2C(=O)CSC23CCc2cc(Cl)ccc23)cc1 (stereo not drawn) |
| 463 | 77 | – | O=C1CSC(c2ccc(Cl)c(Cl)c2)N1OCc1ccccc1 (stereo not drawn) |
| – | – | 100 | COc1ccc(CC(=O)N2CCSC2c2ccc(Cl)c(Cl)c2)cc1 (stereo not drawn) |
| – | 18 | – | Cc1ccc(C2SCCN2C(=O)OCc2ccccc2)cc1C (stereo not drawn) |
| – | 80 | – | Cc1ccc(C2SCCN2C(=O)COc2ccccc2)cc1 (stereo not drawn) |
| 269 | 75 | – | COc1cccc(CON2C(=O)CSC2c2ccc(C)c(C)c2)c1 (stereo not drawn) |
| 380 | – | – | COc1cccc(CON2C(=O)CSC2c2ccc(Cl)cc2)c1 (stereo not drawn) |
| – | 95 | – | Cc1ccc(C2SCCN2C(=O)COc2ccccc2)cc1C (stereo not drawn) |
| 997 | 35 | – | O=C1CSC(c2ccc(Cl)cc2)N1OCc1ccccc1 (stereo not drawn) |
| – | 64 | – | O=C(COc1ccccc1)N1CCSC1c1ccc(C2CC2)cc1 (stereo not drawn) |
| 187 | – | – | COc1ccc(CON2C(=O)CSC2c2ccc(Cl)cc2)cc1 (stereo not drawn) |
| – | 25 | – | COc1ccccc1CON1C(=O)CSC1c1ccc(Cl)cc1 (stereo not drawn) |
| – | 35 | – | COc1ccc(C2SCCN2C(=O)COc2ccccc2)cc1Cl (stereo not drawn) |
